# Experimental data: PMC9032233, “2-{5-[(Z,2Z)-2-Chloro-3-(4-nitrophenyl)-2-propenylidene]-4-oxo-2-thioxothiazolidin-3-yl}-3-methylbutanoic Acid as a Potential Anti-Breast Cancer Molecule” (International Journal of Molecular Sciences, 2022)
# “And” between values parts separate entries of the source, which are not always exact repeats. Identical values can stand only once.
# Columns and labels:
# [1] = Metabolic stability with rat liver microsomes (RLMs); type: in vitro ADME
# Method: The metabolic stability was estimated using rat liver microsomes (RLMs) obtained from Sigma-Aldrich (St. Louis, MO, USA). Les-3331 was incubated in the presence of RLMs and NADPH Regeneration System (Promega, Madison, WI, USA) in Tris-HCl buffer (pH 7.4) for 120 min. Cold ethanol was added next to stop the reaction. The reaction mixture was centrifuged. The aforementioned UPLC-MS device was used to analyze the supernatant. MS/MS ion fragment analyses were performed for Les-3331 and the main metabolite. The in silico prediction of possible Les-3331 metabolic pathways was performed by MetaSite 8.0.1. Software (Molecular Discovery Ltd., Hertfordshire, UK).
# CYP2D6 = target: T1, CYP2D6 (Homo sapiens, UniProt P10635); test: Luminescent CYP2D6 P450-Glo assay; type: in vitro ADME; conditions: at the highest dose 25 µM
# T1 construct: purchased Promega (Madison, WI, USA)
# Method: (§1) For investigation of potential drug-drug interactions, the luminescent CYP3A4 and CYP2D6 P450-Glo assays obtained from Promega® (Madison, WI, USA) were used. Les-3331 was tested in triplicate at the final concentrations from 0.01 to 25 µM according to the protocols provided by Promega®. The reference inhibitors were tested at 1 µM. The luminescent signal was measured using a microplate reader, EnSpire PerkinElmer (Waltham, MA, USA).
# [2] = test system: Salmonella Typhimurium TA100; conditions: Ames MPF
# Method: The mutagenicity was evaluated using Ames microplate fluctuation protocol (MPF) from Xenometrix (Allschwil, Switzerland). The applied Salmonella Typhimurium TA100 strain was enabled to detect base-pair substitution (hisG46 mutation, for which target is GGG). Les-3331 was tested independently in two final concentrations, 1 and 5 µM, in triplicate. The reference mutagen 4-NQO was tested at 26.3 µM. The occurrence of revertants was visualized using pH indicator dye, which was present in the bacterial medium. The color changes from violet to yellow were confirmed using measurements of absorbance with a microplate reader, EnSpire, at 420 nm. According to the protocols and data sheets provided by Xenometrix, the medium control baseline (MCB) was calculated first, which refers to the number of revertants observed in the control (growth medium + 1% DMSO) plus standard deviation. Next, the Binomial B-value was calculated for tested compounds which indicates the probability that spontaneous mutations occurred. The fold increase ≥2 over the MCB and/or Binomial B-value ≥ 0.99 are considered as the mutagen alert.
# CYP3A4 = target: T2, CYP3A4 (Homo sapiens, UniProt P08684); test: Luminescent CYP3A4 P450-Glo assay; type: in vitro ADME; conditions: at 10 and 25 µM
# T2 construct: purchased Promega (Madison, WI, USA)
# Method: as §1
# T1 sequence (P10635 whole entry): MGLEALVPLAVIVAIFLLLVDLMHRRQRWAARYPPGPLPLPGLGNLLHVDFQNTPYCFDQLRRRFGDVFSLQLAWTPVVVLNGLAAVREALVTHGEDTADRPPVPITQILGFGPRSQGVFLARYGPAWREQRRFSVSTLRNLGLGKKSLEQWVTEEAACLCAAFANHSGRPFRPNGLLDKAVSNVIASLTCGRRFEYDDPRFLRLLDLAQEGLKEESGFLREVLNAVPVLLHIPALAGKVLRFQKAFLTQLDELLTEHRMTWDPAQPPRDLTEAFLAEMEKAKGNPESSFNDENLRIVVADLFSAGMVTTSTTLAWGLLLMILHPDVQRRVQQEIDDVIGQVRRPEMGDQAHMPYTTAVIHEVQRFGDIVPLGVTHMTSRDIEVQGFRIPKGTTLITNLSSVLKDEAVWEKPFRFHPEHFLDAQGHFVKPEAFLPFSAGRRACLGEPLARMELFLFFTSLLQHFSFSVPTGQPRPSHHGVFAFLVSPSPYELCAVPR
# T2 sequence (P08684 whole entry): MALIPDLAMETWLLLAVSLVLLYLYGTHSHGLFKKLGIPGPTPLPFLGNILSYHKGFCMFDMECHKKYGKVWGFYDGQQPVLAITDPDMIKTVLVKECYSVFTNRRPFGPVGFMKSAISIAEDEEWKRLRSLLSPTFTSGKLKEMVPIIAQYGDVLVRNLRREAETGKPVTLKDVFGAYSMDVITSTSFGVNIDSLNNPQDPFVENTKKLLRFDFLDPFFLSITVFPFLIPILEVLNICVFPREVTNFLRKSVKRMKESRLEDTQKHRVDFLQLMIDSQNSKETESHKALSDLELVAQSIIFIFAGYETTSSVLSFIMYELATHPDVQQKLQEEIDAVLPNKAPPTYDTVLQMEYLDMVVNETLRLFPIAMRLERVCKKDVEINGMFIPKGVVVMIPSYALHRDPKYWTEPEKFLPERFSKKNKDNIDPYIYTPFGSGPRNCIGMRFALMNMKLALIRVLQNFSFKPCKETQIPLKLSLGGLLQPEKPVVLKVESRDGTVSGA
smiles,measurement,setting,value
"CC(C)C(C(=O)O)N1C(=O)/C(=C/C(Cl)=C/c2ccc([N+](=O)[O-])cc2)SC1=S (stereo not drawn) [Les-3331, 2-{5-[(Z,2Z)-2-chloro-3-(4-nitrophenyl)-2-propenylidene]-4-oxo-2-thioxothiazolidin-3-yl}-3-methylbutanoic acid]",% of the Remaining Substrate,"[1]; RLMs, 120 min incubation",52% and 52.03%
same,Proposed Metabolic Pathway,"[1]; main metabolite M1, RLMs 120 min",decomposition
same,Proposed Metabolic Pathway,"[1]; metabolite M2, RLMs 120 min",decomposition and hydroxylation
same,Proposed Metabolic Pathway,"[1]; metabolite M3, RLMs 120 min",decomposition and dehydrogenation
same,Proposed Metabolic Pathway,"[1]; metabolite M4, RLMs 120 min",decomposition
same,effect on CYP2D6 activity,CYP2D6,slight inhibition
same,mutagenicity,"[2]; TA100, 1 µM",not mutagenic
same,fold increase in MCB,"[2]; TA100, 5 µM",twofold increase in MCB was not reached
same,effect on CYP3A4 activity,CYP3A4,activated
